Laboratory results taken from PubChem BioAssay AID2060898 (Molecular Pharmacology Branch, DTP, NCI, 2025).
Values joined by “and” are separate entries in the source; they are usually repeats but may differ in a detail not shown here. Equal values may be shown once. Values belong to the compound of their own block, whether it stands above or below them.

Test system: 616215-338-R-J1-PDC complex spheroid viability
Assay: Anticancer human tumor 616215-338-R-J1-PDC patient-derived colon adenocarcinoma cell line growth inhibition [RAS]
Conditions: for viability, T/C: stronger effect = lower value
Outline: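 Multi-cell-type spheroids: tumor cells plus HUVEC endothelial cells and mesenchymal stem cells. RAS-pathway inhibitors were combined with targeted agents, each dosed in half-log steps down from clinical Cmax, or from 10 microM when Cmax was unknown.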

[1] = curve of first compound, second compound 0.00316 µM
[2] = curve of first compound, second compound 0.01 µM
[3] = curve of first compound, second compound 0.0316 µM
[4] = curve of first compound, second compound 0.1 µM
[5] = curve of first compound, second compound 0.316 µM
[6] = curve of first compound, second compound 1 µM
[7] = second compound 0.00316 µM, first compound 0.0316 µM
[8] = second compound 0.00316 µM, first compound 0.1 µM
[9] = second compound 0.00316 µM, first compound 0.316 µM
[10] = second compound 0.00316 µM, first compound 1 µM
[11] = second compound 0.00316 µM, first compound 3.16 µM
[12] = second compound 0.00316 µM, first compound 10 µM
[13] = second compound 0.01 µM, first compound 0.0316 µM
[14] = second compound 0.01 µM, first compound 0.1 µM
[15] = second compound 0.01 µM, first compound 0.316 µM
[16] = second compound 0.01 µM, first compound 1 µM
[17] = second compound 0.01 µM, first compound 3.16 µM
[18] = second compound 0.01 µM, first compound 10 µM
[19] = second compound 0.0316 µM, first compound 0.0316 µM
[20] = second compound 0.0316 µM, first compound 0.1 µM
[21] = second compound 0.0316 µM, first compound 0.316 µM
[22] = second compound 0.0316 µM, first compound 1 µM
[23] = second compound 0.0316 µM, first compound 3.16 µM
[24] = second compound 0.0316 µM, first compound 10 µM
[25] = second compound 0.1 µM, first compound 0.0316 µM
[26] = second compound 0.1 µM, first compound 0.1 µM
[27] = second compound 0.1 µM, first compound 0.316 µM
[28] = second compound 0.1 µM, first compound 1 µM
[29] = second compound 0.1 µM, first compound 3.16 µM
[30] = second compound 0.1 µM, first compound 10 µM
[31] = second compound 0.316 µM, first compound 0.0316 µM
[32] = second compound 0.316 µM, first compound 0.1 µM
[33] = second compound 0.316 µM, first compound 0.316 µM
[34] = second compound 0.316 µM, first compound 1 µM
[35] = second compound 0.316 µM, first compound 3.16 µM
[36] = second compound 0.316 µM, first compound 10 µM
[37] = second compound 1 µM, first compound 0.0316 µM
[38] = second compound 1 µM, first compound 0.1 µM
[39] = second compound 1 µM, first compound 0.316 µM
[40] = second compound 1 µM, first compound 1 µM
[41] = second compound 1 µM, first compound 3.16 µM
[42] = second compound 1 µM, first compound 10 µM
[43] = curve of first compound, second compound 0.000949 µM
[44] = curve of first compound, second compound 0.003 µM
[45] = curve of first compound, second compound 0.00949 µM
[46] = curve of first compound, second compound 0.03 µM
[47] = curve of first compound, second compound 0.0949 µM
[48] = curve of first compound, second compound 0.3 µM
[49] = second compound 0.000949 µM, first compound 0.0316 µM
[50] = second compound 0.000949 µM, first compound 0.1 µM
[51] = second compound 0.000949 µM, first compound 0.316 µM
[52] = second compound 0.000949 µM, first compound 1 µM
[53] = second compound 0.000949 µM, first compound 3.16 µM
[54] = second compound 0.000949 µM, first compound 10 µM
[55] = second compound 0.003 µM, first compound 0.0316 µM
[56] = second compound 0.003 µM, first compound 0.1 µM
[57] = second compound 0.003 µM, first compound 0.316 µM
[58] = second compound 0.003 µM, first compound 1 µM
[59] = second compound 0.003 µM, first compound 3.16 µM
[60] = second compound 0.003 µM, first compound 10 µM
[61] = second compound 0.00949 µM, first compound 0.0316 µM
[62] = second compound 0.00949 µM, first compound 0.1 µM
[63] = second compound 0.00949 µM, first compound 0.316 µM
[64] = second compound 0.00949 µM, first compound 1 µM
[65] = second compound 0.00949 µM, first compound 3.16 µM
[66] = second compound 0.00949 µM, first compound 10 µM
[67] = second compound 0.03 µM, first compound 0.0316 µM
[68] = second compound 0.03 µM, first compound 0.1 µM
[69] = second compound 0.03 µM, first compound 0.316 µM
[70] = second compound 0.03 µM, first compound 1 µM
[71] = second compound 0.03 µM, first compound 3.16 µM
[72] = second compound 0.03 µM, first compound 10 µM
[73] = second compound 0.0949 µM, first compound 0.0316 µM
[74] = second compound 0.0949 µM, first compound 0.1 µM
[75] = second compound 0.0949 µM, first compound 0.316 µM
[76] = second compound 0.0949 µM, first compound 1 µM
[77] = second compound 0.0949 µM, first compound 3.16 µM
[78] = second compound 0.0949 µM, first compound 10 µM
[79] = second compound 0.3 µM, first compound 0.0316 µM
[80] = second compound 0.3 µM, first compound 0.1 µM
[81] = second compound 0.3 µM, first compound 0.316 µM
[82] = second compound 0.3 µM, first compound 1 µM
[83] = second compound 0.3 µM, first compound 3.16 µM
[84] = second compound 0.3 µM, first compound 10 µM
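Note: spheroids exposed to agents for seven days before viability readout.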
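Throughout, for viability, T/C: 100% = DMSO vehicle control viability.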

IC50 [1]: > 10000 nM
IC50 [2]: > 10000 nM
IC50 [3]: > 10000 nM
IC50 [4]: > 10000 nM
IC50 [5]: > 10000 nM
IC50 [6]: > 10000 nM
Structure (SMILES): CC(Nc1ccc2c(c1)OCCn1cc(N3C(=O)OCC3C(F)F)nc1-2)C(N)=O (stereo not given) + C=CC(=O)N1CCN(c2nc(OCC3CCCN3C)nc3c(F)c(-c4nc(N)cc(C)c4C(F)(F)F)c(Cl)cc23)C(C)C1
viability, T/C [7]: 106%
viability, T/C [8]: 122%
viability, T/C [9]: 109%
viability, T/C [10]: 101%
viability, T/C [11]: 100%
viability, T/C [12]: 82.2%
viability, T/C [13]: 106%
viability, T/C [14]: 115%
viability, T/C [15]: 110%
viability, T/C [16]: 111%
viability, T/C [17]: 105%
viability, T/C [18]: 85.9%
viability, T/C [19]: 110%
viability, T/C [20]: 114%
viability, T/C [21]: 119%
viability, T/C [22]: 115%
viability, T/C [23]: 93.3%
viability, T/C [24]: 80.1%
viability, T/C [25]: 111%
viability, T/C [26]: 108%
viability, T/C [27]: 107%
viability, T/C [28]: 131%
viability, T/C [29]: 101%
viability, T/C [30]: 77.9%
viability, T/C [31]: 109%
viability, T/C [32]: 103%
viability, T/C [33]: 111%
viability, T/C [34]: 109%
viability, T/C [35]: 103%
viability, T/C [36]: 86.2%
viability, T/C [37]: 106%
viability, T/C [38]: 107%
viability, T/C [39]: 109%
viability, T/C [40]: 119%
viability, T/C [41]: 98%
viability, T/C [42]: 73.4%

IC50 [43]: 1830 nM
IC50 [44]: 1880 nM
IC50 [45]: 1590 nM
IC50 [46]: 1130 nM
IC50 [47]: < 31.6 nM
IC50 [48]: < 31.6 nM
Structure (SMILES): CCC(CC)c1cc(NC2CCC(N)C2)n2nccc2n1 (stereo not given) + CCn1c(-c2cc(N3CCN(C)CC3)cnc2C(C)OC)c2c3cc(ccc31)-c1csc(n1)CC(NC(=O)C1CC1C)C(=O)N1CCCC(N1)C(=O)OCC(C)(C)C2
viability, T/C [49]: 122%
viability, T/C [50]: 113%
viability, T/C [51]: 95%
viability, T/C [52]: 105%
viability, T/C [53]: 0.4%
viability, T/C [54]: 0.24%
viability, T/C [55]: 109%
viability, T/C [56]: 108%
viability, T/C [57]: 116%
viability, T/C [58]: 110%
viability, T/C [59]: 0.37%
viability, T/C [60]: 0.22%
viability, T/C [61]: 80.7%
viability, T/C [62]: 92.2%
viability, T/C [63]: 72.6%
viability, T/C [64]: 88.4%
viability, T/C [65]: 0.29%
viability, T/C [66]: 0.22%
viability, T/C [67]: 50.2%
viability, T/C [68]: 55.3%
viability, T/C [69]: 56.5%
viability, T/C [70]: 62.5%
viability, T/C [71]: 0.28%
viability, T/C [72]: 0.2%
viability, T/C [73]: 41.6%
viability, T/C [74]: 39.9%
viability, T/C [75]: 51.1%
viability, T/C [76]: 49.3%
viability, T/C [77]: 0.28%
viability, T/C [78]: 0.23%
viability, T/C [79]: 30.5%
viability, T/C [80]: 38.5%
viability, T/C [81]: 45.7%
viability, T/C [82]: 47.9%
viability, T/C [83]: 0.33%
viability, T/C [84]: 0.27%

IC50 [43]: 1130 nM
IC50 [44]: 199 nM
IC50 [45]: 37.4 nM
IC50 [46]: < 31.6 nM
IC50 [47]: < 31.6 nM
IC50 [48]: < 31.6 nM
Structure (SMILES): CC1(O)CCCC1n1c(=O)c(C(F)F)cc2cnc(NC3CCN(S(C)(=O)=O)CC3)nc21 (stereo not given) + CCn1c(-c2cc(N3CCN(C)CC3)cnc2C(C)OC)c2c3cc(ccc31)-c1csc(n1)CC(NC(=O)C1CC1C)C(=O)N1CCCC(N1)C(=O)OCC(C)(C)C2
viability, T/C [49]: 122%
viability, T/C [50]: 111%
viability, T/C [51]: 54.4%
viability, T/C [52]: 47.8%
viability, T/C [53]: 46.6%
viability, T/C [54]: 2%
viability, T/C [55]: 113%
viability, T/C [56]: 65.1%
viability, T/C [57]: 30.5%
viability, T/C [58]: 36.8%
viability, T/C [59]: 38.9%
viability, T/C [60]: 4.05%
viability, T/C [61]: 49.9%
viability, T/C [62]: 51.1%
viability, T/C [63]: 29.7%
viability, T/C [64]: 23.9%
viability, T/C [65]: 31.9%
viability, T/C [66]: 2.73%
viability, T/C [67]: 47.4%
viability, T/C [68]: 28%
viability, T/C [69]: 22.7%
viability, T/C [70]: 22.2%
viability, T/C [71]: 36.3%
viability, T/C [72]: 2.37%
viability, T/C [73]: 35%
viability, T/C [74]: 27.4%
viability, T/C [75]: 21.3%
viability, T/C [76]: 22.1%
viability, T/C [77]: 28.7%
viability, T/C [78]: 2.08%
viability, T/C [79]: 31%
viability, T/C [80]: 32%
viability, T/C [81]: 16.4%
viability, T/C [82]: 30.3%
viability, T/C [83]: 29.7%
viability, T/C [84]: 4.15%

IC50 [1]: > 10000 nM
IC50 [2]: > 10000 nM
IC50 [3]: > 10000 nM
IC50 [4]: > 10000 nM
IC50 [5]: > 10000 nM
IC50 [6]: > 10000 nM
Structure (SMILES): NC1c2ccccc2OC12CCN(c1cnc3c(N4CCCc5ncccc54)n[nH]c3n1)CC2 (stereo not given) + C=CC(=O)N1CCN(c2nc(OCC3CCCN3C)nc3c(F)c(-c4nc(N)cc(C)c4C(F)(F)F)c(Cl)cc23)C(C)C1
viability, T/C [7]: 119%
viability, T/C [8]: 114%
viability, T/C [9]: 81.2%
viability, T/C [10]: 79.1%
viability, T/C [11]: 58.7%
viability, T/C [12]: 53.5%
viability, T/C [13]: 134%
viability, T/C [14]: 104%
viability, T/C [15]: 95.4%
viability, T/C [16]: 80.5%
viability, T/C [17]: 83%
viability, T/C [18]: 64.2%
viability, T/C [19]: 121%
viability, T/C [20]: 113%
viability, T/C [21]: 95.7%
viability, T/C [22]: 74.9%
viability, T/C [23]: 77.4%
viability, T/C [24]: 60.6%
viability, T/C [25]: 112%
viability, T/C [26]: 110%
viability, T/C [27]: 81.3%
viability, T/C [28]: 93.4%
viability, T/C [29]: 64.7%
viability, T/C [30]: 62.1%
viability, T/C [31]: 120%
viability, T/C [32]: 112%
viability, T/C [33]: 91.4%
viability, T/C [34]: 74.3%
viability, T/C [35]: 70.9%
viability, T/C [36]: 52.3%
viability, T/C [37]: 116%
viability, T/C [38]: 101%
viability, T/C [39]: 91.8%
viability, T/C [40]: 83.6%
viability, T/C [41]: 73%
viability, T/C [42]: 62.3%

IC50 (curve of compound): > 1000 nM
Structure (SMILES): C=CC(=O)Nc1cc(Nc2nccc(-c3cn(C)c4ccccc34)n2)c(OC)cc1N(C)CCN(C)C
viability, T/C (compound 0.00316 µM): 96.5% [middle of 4 runs]
viability, T/C (compound 0.01 µM): 100% (2×) and 96% and 97.4%
viability, T/C (compound 0.0316 µM): 103% [middle of 4 runs]
viability, T/C (compound 0.1 µM): 105% [middle of 4 runs]
viability, T/C (compound 0.316 µM): 109% [middle of 4 runs]
viability, T/C (compound 1 µM): 74.3% [middle of 4 runs]
